Measured values as given in patent US20250215039A1, “NUCLEOSIDES FOR TREATING CANCER” (PRIMEFOUR THERAPEUTICS, INC., priority 2022, published 2025).
Where two headings read alike, the source gives them in different places.

What was measured:
[1] = system: cancer cell lines; experiment: Cancer cell proliferation activity (CellTiterGlo, 72 h); type: cell-based; conditions: for IC50: 72 h, read-out: IC50 cell proliferation
In short: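 Readout is CellTiterGlo luminescence after 72 h compound exposure (0.1% DMSO final), started one day post-seeding, at 37 °C.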

[2] = molecular target: human cytidine deaminase (CDA) (Homo sapiens, UniProt P32320); experiment: Metabolism by human cytidine deaminase (CDA), substrate absorbance at 290 nm
Chain of human cytidine deaminase (CDA) (P32320 whole entry): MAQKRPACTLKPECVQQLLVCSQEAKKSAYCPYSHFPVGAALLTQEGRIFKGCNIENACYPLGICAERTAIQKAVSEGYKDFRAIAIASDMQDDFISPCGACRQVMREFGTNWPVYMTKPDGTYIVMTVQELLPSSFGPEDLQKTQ

Nc1nc(=O)n([C@H]2C[C@H](O)[C@](CO)(CF)O2)cc1F [Cpd. No. 197, 4-amino-5-fluoro-1-((2R,4S,5R)-5-(fluoromethyl)-4-hydroxy-5-(hydroxymethyl)tetrahydrofuran-2-yl)pyrimidin-2(1H)-one]
IC50 ([1]; 5637 (bladder)): 4 nM | IC50 ([1]; CLS439 (bladder)): > 50000 nM | IC50 ([1]; HS729 (muscle)): > 50000 nM | IC50 ([1]; J82 (bladder)): 216 nM | IC50 ([1]; JAR (placenta)): > 50000 nM | IC50 ([1]; MT3 (breast)): 16 nM | IC50 ([1]; PANCI (pancreas)): > 50000 nM | IC50 ([1]; PC3 (prostate)): > 50000 nM | IC50 ([1]; RD (muscle)): 66 nM | IC50 ([1]; T24 (bladder)): 98 nM | IC50 ([1]; Homo sapiens, 22Rv1, 72 h, 22RV1 (prostate)): 84 nM | IC50 ([1]; Homo sapiens, 786-0, 72 h, 786O (kidney)): > 50000 nM | IC50 ([1]; Homo sapiens, A204, 72 h, A204 (muscle)): 716 nM | IC50 ([1]; Homo sapiens, A549, 72 h, A549 (lung)): 75 nM | IC50 ([1]; Homo sapiens, A673, 72 h, A673 (bone)): 110 nM | IC50 ([1]; Homo sapiens, A2780, 72 h, A2780 (ovary)): 213 nM | IC50 ([1]; Homo sapiens, A-375, 72 h, A375 (skin)): 183 nM | IC50 ([1]; Homo sapiens, A-431, 72 h, A431 (skin)): 2 nM | IC50 ([1]; Homo sapiens, ACHN, ACHN (kidney)): 12 nM | IC50 ([1]; Homo sapiens, ASPC1, 72 h, ASPC1 (pancreas)): 11 nM | IC50 ([1]; Homo sapiens, BT-20, 72 h, BT20 (breast)): > 50000 nM | IC50 ([1]; Homo sapiens, BXPC-3, 72 h, BXPC3 (pancreas)): 0.4 nM | IC50 ([1]; Homo sapiens, C-33-A, C33A (endometrial)): 47 nM | IC50 ([1]; Homo sapiens, CAKI-1, 72 h, CAKI1 (kidney)): > 50000 nM | IC50 ([1]; Homo sapiens, COLO 205, 72 h, COLO205 (colon)): 18 nM | IC50 ([1]; Homo sapiens, COLO-678, 72 h, COLO678 (colon)): > 50000 nM | IC50 ([1]; Homo sapiens, Ca-Ski, CASKI (endometrial)): > 50000 nM | IC50 ([1]; Homo sapiens, Caco-2, 72 h, CACO2 (colon)): > 50000 nM | IC50 ([1]; Homo sapiens, Calu-6, 72 h, CALU6 (lung)): 76 nM | IC50 ([1]; Homo sapiens, DLD-1, 72 h, DLD1 (colon)): 8970 nM | IC50 ([1]; Homo sapiens, DU-145, 72 h, DU145 (prostate)): 425 nM | IC50 ([1]; Homo sapiens, EFO-21, 72 h, EFO21 (ovary)): > 50000 nM | IC50 ([1]; Homo sapiens, EJ-28, 72 h, EJ28 (bladder)): 66 nM | IC50 ([1]; Homo sapiens, Granta-519, 72 h, GRANTA-519 (hematological)): 10 nM | IC50 ([1]; Homo sapiens, HCT-15, 72 h, HCT15 (colon)): 1380 nM | IC50 ([1]; Homo sapiens, HCT-116, 72 h, HCT116 (colon)): 1110 nM | IC50 ([1]; Homo sapiens, HEK293, 72 h, HEK293 (kidney)): > 50000 nM | IC50 ([1]; Homo sapiens, HL-60, 72 h, HL-60 (hematological)): 247 nM | IC50 ([1]; Homo sapiens, HT-29, 72 h, HT29 (colon)): 60 nM | IC50 ([1]; Homo sapiens, HT-1080, 72 h, HT1080 (connective tissue)): 46 nM | IC50 ([1]; Homo sapiens, HeLa, HELA (endometrial)): > 50000 nM | IC50 ([1]; Homo sapiens, HepG2, 72 h, HEPG2 (liver)): 89 nM | IC50 ([1]; Homo sapiens, Hs-578T, HS578T (breast)): > 50000 nM | IC50 ([1]; Homo sapiens, IGROV-1, 72 h, IGROV1 (ovary)): 1590 nM | IC50 ([1]; Homo sapiens, IMR-90, 72 h, IMR90 (lung)): > 50000 nM | IC50 ([1]; Homo sapiens, JEG-3, 72 h, JEG3 (placenta)): 37 nM | IC50 ([1]; Homo sapiens, JIMT-1, 72 h, JIMT1 (breast)): > 50000 nM | IC50 ([1]; Homo sapiens, K562, 72 h, K-562 (hematological)): > 50000 nM | IC50 ([1]; Homo sapiens, Kasumi 1, 72 h, KASUMI-1 (hematological)): 76 nM | IC50 ([1]; Homo sapiens, L-363, 72 h, L-363 (hematological)): > 50000 nM | IC50 ([1]; Homo sapiens, LoVo, LOVO (colon)): 6 nM | IC50 ([1]; Homo sapiens, MCF7, 72 h, MCF7 (breast)): 181 nM | IC50 ([1]; Homo sapiens, MDA-MB-231, 72 h, MDAMB231 (breast)): > 50000 nM | IC50 ([1]; Homo sapiens, MDA-MB-435, 72 h, MDAMB435 (skin)): 924 nM | IC50 ([1]; Homo sapiens, MDA-MB-436, 72 h, MDAMB436 (breast)): 41 nM | IC50 ([1]; Homo sapiens, MDA-MB-468, 72 h, MDAMB468 (breast)): > 50000 nM | IC50 ([1]; Homo sapiens, MG-63, 72 h, MG63 (bone)): 361 nM | IC50 ([1]; Homo sapiens, MHH-ES-1, 72 h, MHHES1 (bone)): 2560 nM | IC50 ([1]; Homo sapiens, MIA PaCa-2, 72 h, MIAPACA2 (pancreas)): 904 nM | IC50 ([1]; Homo sapiens, MINO, MINO (hematological)): 2 nM | IC50 ([1]; Homo sapiens, MV4-11, 72 h, MV4-11 (hematological)): 44 nM | IC50 ([1]; Homo sapiens, NCI-H23, 72 h, NCI-H23 (lung)): 334 nM | IC50 ([1]; Homo sapiens, NCI-H82, 72 h, NCIH82 (lung)): 87 nM | IC50 ([1]; Homo sapiens, NCI-H292, 72 h, NCIH292 (lung)): 114 nM | IC50 ([1]; Homo sapiens, NCI-H460, 72 h, NCIH460 (lung)): 61 nM | IC50 ([1]; Homo sapiens, OVCAR-3, 72 h, OVCAR3 (ovary)): > 50000 nM | IC50 ([1]; Homo sapiens, OVCAR-4, 72 h, OVCAR4 (ovary)): > 50000 nM | IC50 ([1]; Homo sapiens, PLC-PRF-5, 72 h, PLCPRF5 (liver)): > 50000 nM | IC50 ([1]; Homo sapiens, Panc1005, 72 h, PANC1005 (pancreas)): > 50000 nM | IC50 ([1]; Homo sapiens, Ramos, RAMOS (hematological)): 292 nM | IC50 ([1]; Homo sapiens, SAOS-2, 72 h, SAOS2 (bone)): 6 nM | IC50 ([1]; Homo sapiens, SF-268, 72 h, SF268 (brain)): 187 nM | IC50 ([1]; Homo sapiens, SF-295, 72 h, SF295 (brain)): > 50000 nM | IC50 ([1]; Homo sapiens, SK-BR-3, 72 h, SKBR3 (breast)): 5 nM | IC50 ([1]; Homo sapiens, SK-HEP1, 72 h, SKHEP1 (liver)): 1320 nM | IC50 ([1]; Homo sapiens, SK-LMS-1, 72 h, SKLMS1 (uterus)): 298 nM | IC50 ([1]; Homo sapiens, SK-MEL-5, 72 h, SKMEL5 (skin; SKMELS [sic] in Table 9E)): > 50000 nM | IC50 ([1]; Homo sapiens, SK-MEL-28, 72 h, SKMEL28 (skin)): > 50000 nM | IC50 ([1]; Homo sapiens, SK-N-AS, SKNAS (brain)): > 50000 nM | IC50 ([1]; Homo sapiens, SK-N-SH, SKNSH (brain)): > 50000 nM | IC50 ([1]; Homo sapiens, SK-OV-3, 72 h, SKOV3 (ovary)): 71 nM | IC50 ([1]; Homo sapiens, SNB-75, 72 h, SNB75 (brain)): > 50000 nM | IC50 ([1]; Homo sapiens, SU-DHL10, 72 h, SU-DHL-10 (hematological)): 1160 nM | IC50 ([1]; Homo sapiens, SU-DHL-6, 72 h, SU-DHL-6 (hematological)): 143 nM | IC50 ([1]; Homo sapiens, SW-620, 72 h, SW620 (colon)): 82 nM | IC50 ([1]; Homo sapiens, TE-671, 72 h, TE671 (muscle)): 82 nM | IC50 ([1]; Homo sapiens, THP-1, 72 h, THP-1 (hematological)): 131 nM | IC50 ([1]; Homo sapiens, U2OS, U20S (bone; U2OS in Table 9E)): > 50000 nM | IC50 ([1]; Homo sapiens, U-87 MG, U87MG (brain)): > 50000 nM | IC50 ([1]; Homo sapiens, UMUC3, 72 h, UMUC3 (bladder)): 228 nM | IC50 ([1]; Homo sapiens, UO-31, 72 h, UO31 (kidney)): > 50000 nM | IC50 ([1]; Homo sapiens, WSU-NHL, WSU-NHL (hematological)): 448 nM | IC50 ([1]; NCI-H358M, NCIH358M (lung)): 19 nM | IC50 ([1]; PBMC, PBMC (hematological)): 3020 nM | IC50 ([1]; RD-ES, RDES (bone)): 10400 nM | cytotoxicity against a panel of cell lines (waterfall plot) ([1]; panel of cancer and non-cancer cell lines, figure legends FIG. 1-3): selectively cytotoxic in cancer cell lines with high DDR activity | metabolism (deamination) by human CDA (line graph) ([2]; 12 nM CDA, 50 and 200 uM substrate, 37° C., pH 7.5, figure legends FIG. 4-9): not metabolized | substrate conversion by CDA (Inactive) ([2]; rate of substrate conversion at 200 μM, could not be fitted): Inactive
